# Experimental data: patent US5977110A, “Substituted cyclohexylamines as central nervous systems agents” (Warner-Lambert Company, priority 1998, dated 1999)
# Structures can show the parent of a compound that is named as a salt. Where two headings read alike, the source gives them in different places.
# Columns and labels:
# [1] = test system: spontaneous locomotor activity in mice; experiment: Inhibition of spontaneous locomotor activity in mice, a test predictive of antipsychotic activity; type: in vivo; details: Mus musculus, read-out: Inhibition of Locomotor Activity in Mice (ED50, mg/kg, IP)
# Procedure: (§1) The compounds of Formula I are valuable dopaminergic and serotonergic agents. […] Thus, the compounds of Formula I were tested for their ability to inhibit spontaneous locomotor activity in mice, a test predictive of antipsychotic activity, according to the assay described by McLean J. R., et al., Pharmacology, Biochemistry and Behavior, 1978;8:97-99; for their ability to bind to the dopamine D2 receptor using [^3 H]-2-(N-propyl-N-2-thienylethylamino)-5-hydroxytetralin ([^3 H)N-0437) as the ligand according to the method disclosed in Van der Weide J., et al., Eur. J. Pharmacol., 1987;134:211-219; and for their ability to bind to the serotonin 5HT1A receptor using [^3 H]-8-hydroxy-dipropylaminotetralin ([^3 H]-8-OH-DPAT) as the ligand according to the method disclosed in Peroutka S. J., et al., Brain Res., 1985;344:167-171. The above test methods are incorporated herein by reference. The data in the table show the dopaminergic and serotonergic activity of representative compounds of Formula I.
# [2] = molecular target: dopamine D2 receptor (h-D2 Receptors) (Homo sapiens, UniProt P14416); experiment: Inhibition of [^3 H]N-0437 Binding to h-D2 Receptors; details: [^3 H]N-0437 ligand
# Procedure: Thus, the compounds of Formula I were tested for their ability to inhibit spontaneous locomotor activity in mice, a test predictive of antipsychotic activity, according to the assay described by McLean J. R., et al., Pharmacology, Biochemistry and Behavior, 1978;8:97-99; for their ability to bind to the dopamine D2 receptor using [^3 H]-2-(N-propyl-N-2-thienylethylamino)-5-hydroxytetralin ([^3 H)N-0437) as the ligand according to the method disclosed in Van der Weide J., et al., Eur. J. Pharmacol., 1987;134:211-219; and for their ability to bind to the serotonin 5HT1A receptor using [^3 H]-8-hydroxy-dipropylaminotetralin ([^3 H]-8-OH-DPAT) as the ligand according to the method disclosed in Peroutka S. J., et al., Brain Res., 1985;344:167-171. The above test methods are incorporated herein by reference.
# [3] = molecular target: T1, serotonin 5HT1A receptor (Rat Hippocampus Membranes) (Rattus norvegicus, UniProt P19327); experiment: Inhibition of [^3 H]8-OH-DPAT Binding to Rat Hippocampus Membranes; details: [^3 H]-8-OH-DPAT ligand
# T1 construct: Hippocampus; from tissue; host or cells: rat hippocampus membranes
# T1 sequence (P19327 1-422): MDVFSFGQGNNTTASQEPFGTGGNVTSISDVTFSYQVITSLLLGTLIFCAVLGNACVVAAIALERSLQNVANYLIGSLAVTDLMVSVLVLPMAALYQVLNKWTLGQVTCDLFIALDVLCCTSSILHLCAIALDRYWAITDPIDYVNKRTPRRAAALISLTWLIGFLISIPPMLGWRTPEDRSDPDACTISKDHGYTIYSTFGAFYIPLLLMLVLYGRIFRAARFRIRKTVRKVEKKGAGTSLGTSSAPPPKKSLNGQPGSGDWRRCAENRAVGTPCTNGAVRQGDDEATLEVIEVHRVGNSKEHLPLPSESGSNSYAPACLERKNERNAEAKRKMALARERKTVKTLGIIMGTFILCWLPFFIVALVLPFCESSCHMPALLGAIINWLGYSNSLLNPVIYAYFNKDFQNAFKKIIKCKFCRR
# Procedure: as §1
# dopamine D2 receptor (h-D2 Receptors), sequence (P14416 whole entry): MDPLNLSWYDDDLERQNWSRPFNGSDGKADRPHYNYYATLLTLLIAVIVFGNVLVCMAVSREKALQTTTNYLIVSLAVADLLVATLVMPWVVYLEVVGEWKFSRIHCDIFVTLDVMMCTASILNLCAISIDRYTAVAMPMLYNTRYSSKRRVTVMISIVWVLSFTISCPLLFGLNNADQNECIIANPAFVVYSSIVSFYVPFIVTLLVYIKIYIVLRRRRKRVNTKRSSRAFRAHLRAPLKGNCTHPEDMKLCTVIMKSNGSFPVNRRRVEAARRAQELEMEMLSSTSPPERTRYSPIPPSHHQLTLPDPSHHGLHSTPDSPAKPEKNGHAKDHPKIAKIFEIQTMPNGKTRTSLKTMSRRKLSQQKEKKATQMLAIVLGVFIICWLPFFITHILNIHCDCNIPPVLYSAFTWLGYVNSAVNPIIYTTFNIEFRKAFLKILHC
Compound,"ED50 ([1]; mice, IP, ED50) [mg/kg]",Ki [2] [nM],Ki [3] [nM],ED50 ([1]; ip) [mg/kg]
"COc1ccccc1N1CCN(CC[C@H]2CC[C@H](Nc3ncccn3)CC2)CC1 [Example 13, trans-(4-{2-[4-(2-Methoxy-phenyl)-piperazin-1-yl]ethyl}-cyclohexyl)-pyrimidin-2-yl-amine]",0.5,–,–,–
"c1ccc(N2CCN(CC[C@H]3CC[C@@H](Nc4ncccn4)CC3)CC2)cc1 [Example 9, cis-{4-[2-(4-Phenyl-piperazin-1-yl)-ethyl]-cyclohexyl}-pyrimidin-2-yl-aminehydrochloride]",–,28,1.9,–
"Cl.c1ccc(N2CCN(CC[C@H]3CC[C@@H](Nc4ncccn4)CC3)CC2)nc1 [Example 1, cis-{4-[2-(4-Pyridin-2-yl-piperazin-1-yl)-ethyl]-cyclohexyl}-pyrimidin-2-yl-amine hydrochloride]",1.2,–,8.8,–
"C1=C(c2ccccc2)CCN(CC[C@H]2CC[C@H](Nc3ncccn3)CC2)C1 [Example 16, trans-{4-[2-(4-Phenyl-3,6-dihydro-2H-pyridin-1-yl)-ethyl]-cyclohexyl}-pyrimidin-2-yl-amine]",–,–,–,0.25
"FC(F)(F)c1cccc(N2CCN(CC[C@H]3CC[C@H](Nc4ncccn4)CC3)CC2)c1 [Example 12, trans-Pyrimidin-2-yl-(4-{2-[4-(3-trifluoromethyl-phenyl)-piperazin-1-yl]-ethyl}-cyclohexyl)-amine]",4.4,–,–,–
"c1ccc(N2CCN(CC[C@H]3CC[C@H](Nc4ncccn4)CC3)CC2)cc1 [Example 2, trans-{4-[2-(4-Phenyl-piperazin-1-yl)-ethyl]cyclohexyl}-pyrimidin-2-yl-amine]",0.3,3.4,3.1,–
"c1ccc(N2CCN(CC[C@H]3CC[C@H](Nc4ncccn4)CC3)CC2)nc1 [Example 1a, trans-{4-[2-(4-Pyridin-2-yl-piperazin-1-yl)-ethyl]-cyclohexyl}-pyrimidin-2-yl-amine]",0.24,–,–,–
"c1ccc(N2CCN(CC[C@H]3CC[C@H](Nc4ccccn4)CC3)CC2)cc1 [Example 24, trans-{4-[2-(4-Phenyl-piperazin-1-yl)-ethyl]cyclohexyl}-pyridin-2-yl-amine]",0.2,1.4,1.2,–
"c1cnc(N[C@H]2CC[C@H](CCN3CCN(c4cccnc4)CC3)CC2)nc1 [Example 20, trans-{4-[2-(4-Pyridin-3-yl-piperazin-1-yl)-ethyl]-cyclohexyl}-pyrimidin-2-yl-amine]",–,25.3,–,–
"c1cnc(N[C@H]2CC[C@H](CCN3CCN(c4nccs4)CC3)CC2)nc1 [Example 17, trans-Pyrimidin-2-yl-{4-[2-(4-thiazol-2-yl-piperazin-1-yl)-ethyl]-cyclohexyl}-amine]",0.3,–,–,–
"c1ccc(N2CCN(CC[C@H]3CC[C@H](Nc4nccs4)CC3)CC2)cc1 [Example 26, trans-{4-[2-(4-Phenyl-piperazin-1-yl)-ethyl]-cyclohexyl}-thiazol-2-yl-amine]",–,2.35,7.9,–
"c1ccc(N2CCN(CC[C@H]3CC[C@H](Nc4cnccn4)CC3)CC2)cc1 [Example 27, trans-{4-[2-(4-Phenyl-piperazin-1-yl)-ethyl]-cyclohexyl}-pyrazin-2-yl-amine]",0.18,0.93,5.1,–
"Fc1ccc(N2CCN(CC[C@H]3CC[C@H](Nc4ncccn4)CC3)CC2)cc1 [Example 15, trans-(4-{2-[4-(4-Fluoro-phenyl)-piperazin-1-yl]-ethyl}-cyclohexyl)-pyrimidin-2-yl-amine]",0.7,8.3,4.4,–
